Experimental data reported in ChEMBL document CHEMBL3885881, “DrugMatrix”.

Species: Rattus norvegicus
Experiment: DrugMatrix - Regimen: Daily Repeat
Format: toxicity, organism-based, Sprague-Dawley
Design: regimen Daily Repeat, gender Male, age 6-8 weeks
Details: in vivo, po, route oral GAVAGE, vehicle .5 % CMC; for ABSOLUTE BASOPHIL / ABSOLUTE EOSINOPHIL / ABSOLUTE LYMPHOCYTE / ABSOLUTE MONOCYTE / ABSOLUTE SEGMENTED NEUTROPHIL / BASOPHIL / EOSINOPHIL / ERYTHROCYTE COUNT / HEMATOCRIT / HEMOGLOBIN / LEUKOCYTE COUNT / LYMPHOCYTE / MEAN CORPUSCULAR HEMOGLOBIN / MEAN CORPUSCULAR HEMOGLOBIN CONCENTRATION / MEAN CORPUSCULAR VOLUME / MONOCYTE / NEUTROPHIL / NUCLEATED RED BLOOD CELLS / PLATELET COUNT: tissue Blood; for ALANINE AMINOTRANSFERASE / ALBUMIN / ALKALINE PHOSPHATASE / ASPARTATE AMINOTRANSFERASE / BLOOD UREA NITROGEN / CARBON DIOXIDE / CHLORIDE / CHOLESTEROL / CREATINE PHOSPHOKINASE / CREATININE / GLUCOSE / LACTATE DEHYDROGENASE / LIPASE / PHOSPHORUS / POTASSIUM / SODIUM / TOTAL BILIRUBIN / TOTAL PROTEIN / URIC ACID: tissue Plasma
[1] = 0 mg/kg, 72 h, dose level Control, time 3 day
[2] = 0 mg/kg, 120 h, dose level Control, time 5 day
[3] = 29 mg/kg, 72 h, dose level Low, time 3 day

NC(=O)NC(=O)Cc1ccccc1 [PHENACEMIDE]
ABSOLUTE BASOPHIL [1]: 0 CELLS/uL
ABSOLUTE EOSINOPHIL [1]: 15.17 CELLS/uL
ABSOLUTE LYMPHOCYTE [1]: 10149.83 CELLS/uL
ABSOLUTE MONOCYTE [1]: 193.33 CELLS/uL
ABSOLUTE SEGMENTED NEUTROPHIL [1]: 1575 CELLS/uL
BASOPHIL [1]: 0%
EOSINOPHIL [1]: 0.17%
ERYTHROCYTE COUNT [1]: 5.53 x10E6/uL
HEMATOCRIT [1]: 34.7%
HEMOGLOBIN [1]: 12.78 G/DL
LEUKOCYTE COUNT [1]: 11.93 x10E3/uL
LYMPHOCYTE [1]: 85.5%
MEAN CORPUSCULAR HEMOGLOBIN [1]: 23.15 pg
MEAN CORPUSCULAR HEMOGLOBIN CONCENTRATION [1]: 36.9 G/DL
MEAN CORPUSCULAR VOLUME [1]: 62.82 fL
MONOCYTE [1]: 1.5%
NEUTROPHIL [1]: 12.83%
NUCLEATED RED BLOOD CELLS [1]: 0.5 /100WBC
PLATELET COUNT [1]: 994.17 x10E3/uL
ALANINE AMINOTRANSFERASE [1]: 48.17 u/L
ALBUMIN [1]: 4.37 G/DL
ALKALINE PHOSPHATASE [1]: 436.5 u/L
ASPARTATE AMINOTRANSFERASE [1]: 83.17 u/L
BLOOD UREA NITROGEN [1]: 14.67 mg/dL
CARBON DIOXIDE [1]: 30.83 mmol/L
CHLORIDE [1]: 99.17 MEQ/L
CHOLESTEROL [1]: 86.33 mg/dL
CREATINE PHOSPHOKINASE [1]: 243.33 u/L
CREATININE [1]: 0.25 mg/dL
GLUCOSE [1]: 158 mg/dL
LACTATE DEHYDROGENASE [1]: 262.33 u/L
LIPASE [1]: 11 u/L
PHOSPHORUS [1]: 12.07 mg/dL
POTASSIUM [1]: 6.52 MEQ/L
SODIUM [1]: 142.45 MEQ/L
TOTAL BILIRUBIN [1]: 0.17 mg/dL
TOTAL PROTEIN [1]: 6.25 G/DL
URIC ACID [1]: 1.42 mg/dL
ABSOLUTE BASOPHIL [2]: 0 CELLS/uL
ABSOLUTE EOSINOPHIL [2]: 0 CELLS/uL
ABSOLUTE LYMPHOCYTE [2]: 10076.67 CELLS/uL
ABSOLUTE MONOCYTE [2]: 124 CELLS/uL
ABSOLUTE SEGMENTED NEUTROPHIL [2]: 966 CELLS/uL
BASOPHIL [2]: 0%
EOSINOPHIL [2]: 0%
ERYTHROCYTE COUNT [2]: 5.57 x10E6/uL
HEMATOCRIT [2]: 33.37%
HEMOGLOBIN [2]: 12.73 G/DL
LEUKOCYTE COUNT [2]: 11.17 x10E3/uL
LYMPHOCYTE [2]: 90.33%
MEAN CORPUSCULAR HEMOGLOBIN [2]: 22.9 pg
MEAN CORPUSCULAR HEMOGLOBIN CONCENTRATION [2]: 38.18 G/DL
MEAN CORPUSCULAR VOLUME [2]: 59.97 fL
MONOCYTE [2]: 1%
NEUTROPHIL [2]: 8.67%
NUCLEATED RED BLOOD CELLS [2]: 0 /100WBC
PLATELET COUNT [2]: 1078 x10E3/uL
ALANINE AMINOTRANSFERASE [2]: 37.17 u/L
ALBUMIN [2]: 4.2 G/DL
ALKALINE PHOSPHATASE [2]: 322.17 u/L
ASPARTATE AMINOTRANSFERASE [2]: 67.67 u/L
BLOOD UREA NITROGEN [2]: 14 mg/dL
CARBON DIOXIDE [2]: 27.67 mmol/L
CHLORIDE [2]: 102.17 MEQ/L
CHOLESTEROL [2]: 67.67 mg/dL
CREATINE PHOSPHOKINASE [2]: 171.83 u/L
CREATININE [2]: 0.27 mg/dL
GLUCOSE [2]: 172 mg/dL
LACTATE DEHYDROGENASE [2]: 85.33 u/L
LIPASE [2]: 8.67 u/L
PHOSPHORUS [2]: 12 mg/dL
POTASSIUM [2]: 6.09 MEQ/L
SODIUM [2]: 144.82 MEQ/L
TOTAL BILIRUBIN [2]: 0.13 mg/dL
TOTAL PROTEIN [2]: 6.07 G/DL
URIC ACID [2]: 2.13 mg/dL
ABSOLUTE BASOPHIL [3]: 0 CELLS/uL
ABSOLUTE EOSINOPHIL [3]: 0 CELLS/uL
ABSOLUTE LYMPHOCYTE [3]: 6638.67 CELLS/uL
ABSOLUTE MONOCYTE [3]: 81.67 CELLS/uL
ABSOLUTE SEGMENTED NEUTROPHIL [3]: 1179.67 CELLS/uL
BASOPHIL [3]: 0%
EOSINOPHIL [3]: 0%
ERYTHROCYTE COUNT [3]: 4.84 x10E6/uL
HEMATOCRIT [3]: 29.67%
HEMOGLOBIN [3]: 11.57 G/DL
LEUKOCYTE COUNT [3]: 7.9 x10E3/uL
LYMPHOCYTE [3]: 84%
MEAN CORPUSCULAR HEMOGLOBIN [3]: 23.9 pg
MEAN CORPUSCULAR HEMOGLOBIN CONCENTRATION [3]: 39 G/DL
MEAN CORPUSCULAR VOLUME [3]: 61.37 fL
MONOCYTE [3]: 1%
NEUTROPHIL [3]: 15%
NUCLEATED RED BLOOD CELLS [3]: 0.67 /100WBC
PLATELET COUNT [3]: 982 x10E3/uL
ALANINE AMINOTRANSFERASE [3]: 51 u/L
ALBUMIN [3]: 4.1 G/DL
ALKALINE PHOSPHATASE [3]: 430.67 u/L
ASPARTATE AMINOTRANSFERASE [3]: 87.33 u/L
BLOOD UREA NITROGEN [3]: 15.67 mg/dL
CARBON DIOXIDE [3]: 30 mmol/L
CHLORIDE [3]: 101 MEQ/L
CHOLESTEROL [3]: 78.67 mg/dL
CREATINE PHOSPHOKINASE [3]: 358 u/L
CREATININE [3]: 0.27 mg/dL
GLUCOSE [3]: 152.67 mg/dL
LACTATE DEHYDROGENASE [3]: 97 u/L
LIPASE [3]: 9.67 u/L
PHOSPHORUS [3]: 12.5 mg/dL
POTASSIUM [3]: 6.3 MEQ/L
SODIUM [3]: 145.1 MEQ/L
TOTAL BILIRUBIN [3]: 0.13 mg/dL
TOTAL PROTEIN [3]: 5.83 G/DL
URIC ACID [3]: 0.97 mg/dL
